# Patent US20250283049A1, “AGENT FOR CULTURING ORGANOID IN ABSENCE OF EXTRACELLULAR MATRIX” (KEIO UNIVERSITY, priority 2022, published 2025)
# Key:
# Format in all cases: cell-based
# [1] = tested on: human large intestine-derived organoid; test: Culture of organoids in presence of Matrigel and LATS kinase inhibitor; cell number by ATP (CellTiter-Glo 3D); conditions: presence of Matrigel; 10 mM Lats-IN as printed; 7 days of culture; vs control without Lats-IN
# Experimental: A human small intestine-derived organoid and a human large intestine-derived organoid were cultured in the presence of an inhibitor of LATS1 kinase and LATS2 kinase, Lats-IN-1 (CAS No. 1424635-83-5, hereinafter sometimes referred to as “Lats-IN” and also referred to as “TRULI”), and their dynamics were observed.
# The human small intestine-derived organoid and the human large intestine-derived organoid used were those established from tissues derived from patients with gastrointestinal tumors who provided informed consent, in accordance with an ethical research plan approved by the Ethics Committee of the Keio University School of Medicine.
# Each organoid was dissociated into single cells using TrypLE Express (Thermo Fisher Scientific Inc.) to obtain a cell suspension. […]
# The cell proliferation was measured by measuring adenosine triphosphate (ATP) using a commercially available kit (product name “CellTiter-Glo 3D,” Promega Corporation).
# The lower left panel of FIG. 2 is a photograph of a control (Ctrl) human large intestine-derived organoid cultured in the absence of Lats-IN, and the lower center panel of FIG. 2 is a photograph of a human large intestine-derived organoid cultured in the presence of Lats-IN. […] The vertical axis of the graph represents luminescence intensity (relative value) indicating the amount of ATP present.
# [2] = tested on: human large intestine-derived organoids dissociated into single cells; test: Organoid formation from single cells (Examination 2); conditions: absence of Matrigel, presence of TRULI 10 μM
# Experimental: After dissociating human large intestine-derived organoids into single cells, organoid formation from the single cells was observed.
# FIG. 27 is a graph showing the results of organoid formation from the single cells in the presence (+) or absence (−) of Matrigel (registered trademark) and in the absence (−) or presence (+, final concentration: 10 μM) of TRULI. […] In addition, the vertical axis of the graph represents the percentage (%) of cells that formed organoids among the seeded single cells.
# [3] = tested on: human large intestine-derived organoids; test: Niche factor removal; organoid proliferation by ATP (CellTiter-Glo 3D); conditions: absence of Matrigel; Lats-IN 10 μM; some WRENAIF niche factors removed
# Experimental: (§1) In this experimental example, the relationship between LATS inhibition and the niche factors essential for organoid culture was examined. FIG. 14 presents graphs showing the results of measuring the proliferation of human small intestine-derived organoids and human large intestine-derived organoids cultured under conditions in which all WRENAIF niche factors were added, and under conditions in which some of these niche factors were removed. As a medium to which all of the WRENAIF niche factors were added, the medium whose composition is shown in Table 1 above was used, and as a medium from which some of these niche factors were removed, a medium from which the corresponding niche factors were removed from the medium whose composition is shown in Table 1 above was used. The cell proliferation was measured by measuring ATP using a commercially available kit (product name “CellTiter-Glo 3D,” Promega Corporation). The vertical axis of the graph represents luminescence intensity (relative value) indicating the amount of ATP present.
# (§2) In addition, on the horizontal axis, added niche factors are shown in black, and niche factors not added are shown in light color.
# [4] = tested on: human small intestine-derived organoids; test: as above; conditions: absence of Matrigel; Lats-IN 10 μM; some WRENAIF niche factors removed
# Experimental: as §1, §2
# [5] = tested on: human small intestine-derived organoids; test: Niche factor removal; continuous passaging P0 to P16 in absence of Matrigel; conditions: Lats-IN 10 μM
# Experimental: FIG. 15 is a graph showing the results of measuring the proliferation of human small intestine-derived organoids cultured in the absence of Matrigel (registered trademark), in the absence or presence of Lats-IN (final concentration: 10 μM), under conditions in which all WRENAIF niche factors were added, and under conditions in which some of these niche factors were removed. In FIG. 15, P0 to P16 indicate passage numbers 0 to 16. In addition, the dark colors in the graph indicate successful passaging, while the light colors indicate unsuccessful passaging.
# [6] = tested on: phosphorylated ERK (Thr202/Tyr204); test: ERK phosphorylation by Western blotting in human small intestine-derived organoids; conditions: absence of Matrigel; Lats-IN 10 μM
# Experimental: Next, human small intestine-derived organoids were cultured in the absence or presence of Matrigel (registered trademark) and in the absence or presence of Lats-IN (final concentration: 10 μM), and ERK phosphorylated by EGF signaling was detected by Western blotting.
# FIG. 17 presents graphs showing the results of Western blotting. In FIG. 17, “pERK” represents phosphorylated ERK, and “total ERK” represents total ERK (the sum of phosphorylated ERK and non-phosphorylated ERK). In addition, “pYAP” represents phosphorylated YAP, and “total YAP” represents total YAP (the sum of phosphorylated YAP and non-phosphorylated YAP). The antibody against phosphorylated ERK used was phospho-ERK (Thr202/Tyr204) (#4370, Cell Signaling Technology, Inc.). The antibody against total ERK used was total-ERK (#4695, Cell Signaling Technology, Inc.). The antibody against phosphorylated YAP used was phospho-YAP (Ser127) (#4911, Cell Signaling Technology, Inc.). The antibody against total YAP used was total-YAP (#14074, Cell Signaling Technology, Inc.).
# [7] = tested on: human liver cell organoids; test: Culturing liver cell organoids in absence of Matrigel; number of viable cells (CellTiter-Glo 3D); conditions: concentration not given
# Experimental: Human liver cell organoids, established from primary human liver cells, were supplemented with TrypLE Express (Thermo Fisher Scientific) and incubated at 37° C. for 5 minutes to dissociate them into single cells.
# The cells were then collected and suspended in proliferation medium separately supplemented with 2, 5, 10, 20, or 50 μM TDI-011536 (CAS No. 2687970-96-1), and […] seeded into an ultra-low attachment 96-well plate at 2,000 cells/well. The preferred seeding density is 2,000 to 4,000 cells/well. In addition, cells in proliferation medium supplemented with no TDI-011536 were prepared as a control.
# The proliferation medium was a medium consisting of a basal medium (Advanced DMEM/F-12 medium, 10 mM HEPES, 2 mM GlutaMAX, 100 U penicillin, 100 μg/mL streptomycin) supplemented with 10% afamin-Wnt-3A conditioned medium, 2% R-spondin 1 conditioned medium, 2% Noggin conditioned medium, and 20 ng/ml Oncostatin M.
# On day 6 after seeding, the number of viable cells in the human liver cell organoids was measured using a commercially available kit (product name “CellTiter-Glo 3D,” Promega Corporation).
smiles,measurement,setting,value
O=C(N=c1sccn1Cc1ccccc1)c1c[nH]c2ncccc12 [Lats-IN],"cell proliferation (cell number per well, ATP luminescence)",[1],significantly activated
same,organoid formation from single cells,[2],proliferated from single cells and formed organoids
same,cell proliferation without one or two niche factors,[3],cells proliferated
same,cell proliferation without one or two niche factors,[4],cells proliferated
same,continuous passaging in medium lacking any of the WRENAIF niche factors,[5],continuous passaging was not possible
same,ERK phosphorylation,[6],increased to a level equivalent to that in the presence of Matrigel
same,increase in number of viable cells,[7],about three-fold
